Measurements: article PMC6933146 (Biotechnology Reports, 2019)

Assays:
Format in all cases: biochemical, Alcaligenes faecalis
[1] = test system: LAC1* (purified extracellular laccase); experiment: spectrophotometric oxidation; settings: optimized conditions (optimum pH for ABTS 5.5), 50-500 μM substrate
[2] = test system: LAC1* (purified extracellular laccase); experiment: spectrophotometric oxidation at […] nm, Lineweaver-Burk; settings: pH 8.0, 80 °C, 50-500 μM substrate
[3] = test system: LAC1* (purified extracellular laccase); experiment: spectrophotometric oxidation; settings: optimized conditions (optimum pH for guaiacol 8), 50-500 μM substrate

CCn1c(=NN=c2sc3cc(S(=O)(=O)O)ccc3n2CC)sc2cc(S(=O)(=O)O)ccc21 [ABTS]
Km [1]: 500 µM

COc1cccc(OC)c1O [2,6-DMP]
Km [2]: 480 µM

COc1ccccc1O [Guaiacol]
Km [3]: 1000 µM
